This passage reports EC50 and IC50 results from patent US11534441B2, “MAP4K1 inhibitors” (Blueprint Medicines Corporation, priority 2020, dated 2022).

Experiment [1] deals with expanded CD3+ T cells. Description: T cell enhancement of cytokines: IL2 measurement (HTRF) in expanded CD3+ T cells stimulated with anti-CD3/anti-CD28. It is filed as cell-based, human. To be noted: IL-2 measurement. The procedure: T cells are isolated from whole blood of healthy donors by immunomagnetic negative selection following manufacture's protocol (StemCell Technologies, human T cell isolation kit). Purity of isolated cells is assessed by flow cytometry and yields 95-98% CD3^+ T cells. For expansion of T cells, 1×10^6 cells/well are plated in serum free cell expansion media (ThermoFisher) containing 30 U of recombinant human IL2 (R&D) and stimulated with 25 ul of CD3/CD28 beads (Invitrogen) in 24 well plates for 3-4 days. T cells are then expanded in 175 cm flasks and maintained at a cell density of 1 to 2.5×10^6 cells/ml days by addition of ⅔ of fresh media every 2-3 days. After 10-14 days, cells are frozen in BamBanker freezing media (Thermo) and stored in liquid nitrogen.
For IL2 measurement, expanded CD3^+ T cells are dispensed at 100K cells/well (cultured in X-VIVO 10 Serum-free media) and are stimulated with plate-bound anti-CD3 and soluble anti-CD28 in the presence of vehicle or compound of the disclosure at various concentrations for 24 h. As outlined in the manufacturer's protocol (Cisbio), 16 μL of conditioned media is transferred to a white 384-well low volume plate. Following a 24 h incubation with the anti-IL2 antibodies, the homogenous time resolved fluorescence (HTRF) is measured.
(TR-FRET usually uses a lanthanide donor and a delayed reading to cut background.)

The target of experiment [2] is MAP4K1 (HPK1) (Homo sapiens (Human), UniProt Q92918). As to the kind of experiment: MAP4K1 (HPK1) biochemical enzymatic activity, electrophoretic mobility shift (EZReader 2), ATP at APPKM (26 μM). Summed up:
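Phosphorylated and unphosphorylated peptide were separated electrophoretically, and the product/substrate peak ratio served as readout. Reactions held 0.1-15 nM HPK1, 1.5 μM fluorescent peptide and 26 μM ATP (apparent Km) in pH 7.5 HEPES buffer with MgCl2 and DTT. Compounds were tested as 4-fold, 10-point dilutions in 1% DMSO for 60-180 min at 25° C, then quenched with EDTA.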

Where [3] appears, read: Homo sapiens, T-cell, class designation.
The mark [4] stands for this setting: Homo sapiens, T-cell, numeric value.

Each structure is given as a SMILES string. Where only a bound is given, the exact number is not on record here.

MAP4K1 (HPK1), sequence (Q92918 whole entry): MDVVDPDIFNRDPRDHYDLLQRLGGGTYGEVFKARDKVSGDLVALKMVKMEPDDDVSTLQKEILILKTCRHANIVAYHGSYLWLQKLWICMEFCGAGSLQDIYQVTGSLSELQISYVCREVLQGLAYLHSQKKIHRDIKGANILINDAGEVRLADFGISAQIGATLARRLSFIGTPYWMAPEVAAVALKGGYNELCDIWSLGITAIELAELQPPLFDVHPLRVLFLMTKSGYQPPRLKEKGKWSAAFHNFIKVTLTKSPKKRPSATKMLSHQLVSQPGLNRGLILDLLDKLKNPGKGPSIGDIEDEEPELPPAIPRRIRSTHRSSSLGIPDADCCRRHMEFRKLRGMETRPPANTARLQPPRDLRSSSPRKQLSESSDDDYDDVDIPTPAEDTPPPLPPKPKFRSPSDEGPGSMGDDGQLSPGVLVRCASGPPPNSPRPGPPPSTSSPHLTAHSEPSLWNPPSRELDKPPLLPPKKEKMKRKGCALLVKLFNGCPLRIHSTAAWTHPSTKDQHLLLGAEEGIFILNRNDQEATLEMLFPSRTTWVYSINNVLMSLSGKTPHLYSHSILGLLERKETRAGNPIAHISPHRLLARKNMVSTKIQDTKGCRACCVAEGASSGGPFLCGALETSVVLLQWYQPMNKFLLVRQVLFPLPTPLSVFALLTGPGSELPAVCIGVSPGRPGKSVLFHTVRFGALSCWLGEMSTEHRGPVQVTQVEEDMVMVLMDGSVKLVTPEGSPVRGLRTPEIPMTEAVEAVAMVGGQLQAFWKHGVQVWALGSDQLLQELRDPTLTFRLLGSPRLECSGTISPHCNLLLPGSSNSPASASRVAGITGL

For `COc1ncc(C(C)(C)N)c2cc(Nc3ccc4c(n3)CC(C)(C)OC4=O)ncc12` [Compound 36], the results for the EC50 in experiment [1] (setting [3]) and in experiment [1] (setting [4]) were < 35 nM and 15.3 nM, respectively. The IC50 in experiment [2] (class designation) was < 0.3 nM; in experiment [2] (numeric value), 0.17 nM.
On the same counts, the results for `COc1ncc(C(C)(C)N)c2cc(Nc3ccc4c(n3)[C@@H](C)[C@H](C)OC4=O)ncc12` [Compound 37] are < 35 nM, 1.9 nM, < 0.3 nM and 0.14 nM.
On the same counts, the results for `COc1ncc(C(C)(C)N)c2cc(Nc3ccc4c(n3)[C@H](C)[C@@H](C)OC4=O)ncc12` [Compound 38] are < 35 nM, 5.8 nM, < 0.3 nM and 0.2 nM.
Regarding `CCOc1ncc(C(C)(C)N)c2cc(Nc3ccc4c(n3)C(C)(C)OC4=O)ncc12` [Compound 45], the values for the EC50 in experiment [1] (setting [3]) and in experiment [1] (setting [4]) were > 55 nM and 70.3 nM, respectively. Besides, the half-inhibitory concentration (IC50) in experiment [2] (class designation) is 0.31 to 1 nM; in experiment [2] (numeric value) it was 1.03 nM.
On the same counts, the results for `COc1cnc(C(C)(C)N)c2cc(Nc3ccc4c(n3)CC(C)(C)OC4=O)ncc12` [Compound 46, 2-((5-(2-Aminopropan-2-yl)-8-methoxy-2,6-naphthyridin-3-yl)amino)-7,7-dimethyl-7,8-dihydro-5H-pyrano[4,3-b]pyridin-5-one] are < 35 nM, 34.3 nM, 0.31 to 1 nM and 0.94 nM.
Regarding `CNc1ncc(C(C)(C)N)c2cc(Nc3cnc(C#N)c(N4CCC[C@@H]4C)n3)ncc12` [Compound 48], the results for the EC50 in experiment [1] (setting [3]) and in experiment [1] (setting [4]) were > 55 nM and 136 nM, respectively. Also, the figures for the IC50 in experiment [2] (class designation) and in experiment [2] (numeric value) were 1.1 to 10 nM and 1.72 nM, respectively.
Regarding `CCNc1ncc(C(C)(C)N)c2cc(Nc3ccc4c(n3)CC(C)(C)OC4=O)ncc12` [Compound 53], the EC50 in experiment [1] (setting [3]) was < 35 nM; in experiment [1] (setting [4]), 17.2 nM. Besides, the figures for the IC50 in experiment [2] (class designation) and in experiment [2] (numeric value) were 0.31 to 1 nM and 0.36 nM, respectively.
On the same counts, the results for `CCOc1ncc(C(C)(C)N)c2cc(Nc3ccc4c(n3)CC(C)(C)OC4=O)ncc12` [Compound 54] are < 35 nM, 9.3 nM, < 0.3 nM and 0.25 nM.
On the same counts, the results for `COc1ncc(C(C)(C)N)c2cc(Nc3ccc4c(n3)[C@H](C)C(C)(C)OC4=O)ncc12` [Compound 55] are < 35 nM, 11.6 nM, < 0.3 nM and 0.18 nM.
On the same counts, the results for `COc1ncc(C(C)(C)N)c2cc(Nc3ccc4c(n3)[C@@H](C)C(C)(C)OC4=O)ncc12` [Compound 56] are < 35 nM, 6.6 nM, < 0.3 nM and 0.1 nM.
For the molecule `CCOc1ncc(C(C)(C)N)c2cc(Nc3ccc4c(n3)[C@@H](C)[C@H](C)OC4=O)ncc12` [Compound 57], the EC50 in experiment [1] (setting [3]) was < 35 nM; in experiment [1] (setting [4]), 5.1 nM. Besides, the figures for the IC50 in experiment [2] (class designation) and in experiment [2] (numeric value) were < 0.3 nM and 0.16 nM, respectively.
On the same counts, the results for `CCOc1ncc(C(C)(C)N)c2cc(Nc3ccc4c(n3)[C@H](C)[C@@H](C)OC4=O)ncc12` [Compound 58] are < 35 nM, 20.4 nM, 0.31 to 1 nM and 0.39 nM.
On the same counts, the results for `CC1(C)Cc2nc(Nc3cc4c(C(C)(C)N)cnc(OC5CC5)c4cn3)ccc2C(=O)O1` [Compound 64] are 35.1 to 45 nM, 42.9 nM, 0.31 to 1 nM and 0.44 nM.
On the same counts, the results for `C[C@@H]1OC(=O)c2ccc(Nc3cc4c(C(C)(C)N)cnc(OC5CC5)c4cn3)nc2[C@H]1C` [Compound 66, (7S, 8R)-2-((5-(2-aminopropan-2-yl)-8-cyclopropoxy-2,7-naphthyridin-3-yl)amino)-7,8-dimethyl-7,8-dihydro-5H-pyrano[4,3-b]pyridin-5-one] are < 35 nM, 8.1 nM, < 0.3 nM and 0.18 nM.
With `CCOc1ncc(C(C)(C)N)c2cc(Nc3ccc4c(n3)[C@@H](C)C(C)(C)OC4=O)ncc12` [Compound 67], the EC50 in experiment [1] (setting [3]) is < 35 nM; in experiment [1] (setting [4]), 6.2 nM. The figures for the IC50 in experiment [2] (class designation) and in experiment [2] (numeric value) were < 0.3 nM and 0.12 nM, respectively.
In the case of `CCOc1ncc(C(C)(C)N)c2cc(Nc3ccc4c(n3)[C@H](C)C(C)(C)OC4=O)ncc12` [Compound 68], the EC50 is < 35 nM in experiment [1] (setting [3]) and 29.5 nM in experiment [1] (setting [4]). Moreover, the IC50 in experiment [2] (class designation) was < 0.3 nM; in experiment [2] (numeric value) it was 0.27 nM.
On the same counts, the results for `CC(C)Oc1ncc(C(C)(C)N)c2cc(Nc3ccc4c(n3)CC(C)(C)OC4=O)ncc12` [Compound 69] are 45.1 to 55 nM, 52.8 nM, 0.31 to 1 nM and 0.88 nM.
On to `C[C@H]1c2nc(Nc3cc4c(C(C)(C)N)cnc(OC5CC5)c4cn3)ccc2C(=O)OC1(C)C` [Compound 70], for which the EC50 is < 35 nM in experiment [1] (setting [3]) and 20.6 nM in experiment [1] (setting [4]). Further, the IC50 in experiment [2] (class designation) was 0.31 to 1 nM; in experiment [2] (numeric value), 0.35 nM.
As to `C[C@@H]1c2nc(Nc3cc4c(C(C)(C)N)cnc(OC5CC5)c4cn3)ccc2C(=O)OC1(C)C` [Compound 71], the EC50 is < 35 nM in experiment [1] (setting [3]) and 7.9 nM in experiment [1] (setting [4]). Besides, the IC50 in experiment [2] (class designation) is < 0.3 nM; in experiment [2] (numeric value), 0.11 nM.
On to `CC1(C)Cc2nc(Nc3cc4c(C(C)(C)N)cnc(OC5CCC5)c4cn3)ccc2C(=O)O1` [Compound 72, 2-((5-(2-Aminopropan-2-yl)-8-cyclobutoxy-2,7-naphthyridin-3-yl)amino)-7,7-dimethyl-7,8-dihydro-5H-pyrano[4,3-b]pyridin-5-one], for which the EC50 in experiment [1] (setting [3]) is 35.1 to 45 nM; in experiment [1] (setting [4]), 35.5 nM. In addition, the IC50 in experiment [2] (class designation) was 0.31 to 1 nM.
With `CC1(C)Cc2nc(Nc3cc4c(C(C)(C)N)cnc(OCC(F)F)c4cn3)ccc2C(=O)O1` [Compound 73], the figures for the EC50 in experiment [1] (setting [3]) and in experiment [1] (setting [4]) were < 35 nM and 23.7 nM, respectively. The IC50 was < 0.3 nM in experiment [2] (class designation) and 0.22 nM in experiment [2] (numeric value).
On the same counts, the results for `CC1(C)Cc2nc(Nc3cc4c([C@](C)(N)C5CC5)cnc(OC5CC5)c4cn3)ccc2C(=O)O1` [Compound 74, R-2-((5-(1-amino-1-cyclopropylethyl)-8-cyclopropoxy-2,7-naphthyridin-3-yl)amino)-7,7-dimethyl-7,8-dihydro-5H-pyrano[4,3-b]pyridin-5-one] are < 35 nM, 22.2 nM, < 0.3 nM and 0.12 nM.
With `CC1(C)Cc2nc(Nc3cc4c(C(C)(C)N)cnc(OCC(F)(F)F)c4cn3)ccc2C(=O)O1` [Compound 77], the EC50 was < 35 nM in experiment [1] (setting [3]) and 32.5 nM in experiment [1] (setting [4]). The IC50 was 0.31 to 1 nM in experiment [2] (class designation) and 0.65 nM in experiment [2] (numeric value).
On to `C[C@@H]1OC(=O)c2ccc(Nc3cc4c(C(C)(C)N)cnc(OCC(F)(F)F)c4cn3)nc2[C@H]1C` [Compound 78], for which the EC50 was < 35 nM in experiment [1] (setting [3]) and 11.6 nM in experiment [1] (setting [4]). Besides, the IC50 in experiment [2] (class designation) is < 0.3 nM; in experiment [2] (numeric value), 0.19 nM.
As for `CC[C@@](C)(N)c1cnc(OC2CC2)c2cnc(Nc3ccc4c(n3)[C@@H](C)[C@H](C)OC4=O)cc12` [Compound 80], the EC50 in experiment [1] (class designation) is < 35 nM; in experiment [1] (numeric value) it was 4.1 nM. The values for the IC50 in experiment [2] (class designation) and in experiment [2] (numeric value) were < 0.3 nM and 0.08 nM, respectively.
As to `C[C@@H]1OC(=O)c2ccc(Nc3cc4c(C(C)(C)N)cnc(OC5(C)CC5)c4cn3)nc2[C@H]1C` [Compound 82], the EC50 in experiment [1] (setting [3]) was < 35 nM; in experiment [1] (setting [4]), 20.8 nM. For the same molecule, the IC50 in experiment [2] (class designation) was < 0.3 nM; in experiment [2] (numeric value), 0.16 nM.
Regarding `C[C@@H]1c2nc(Nc3cc4c(C(C)(C)N)cnc(OC5(C)CC5)c4cn3)ccc2C(=O)OC1(C)C` [Compound 83], the EC50 is < 35 nM in experiment [1] (setting [3]) and 28.7 nM in experiment [1] (setting [4]). In addition, the figures for the IC50 in experiment [2] (class designation) and in experiment [2] (numeric value) were < 0.3 nM and 0.19 nM, respectively.
As to `CC[C@](C)(N)c1cnc(OC2(C)CC2)c2cnc(Nc3ccc4c(n3)[C@@H](C)[C@H](C)OC4=O)cc12` [Compound 85], the EC50 was 35.1 to 45 nM in experiment [1] (class designation) and 36.1 nM in experiment [1] (numeric value). Moreover, the values for the IC50 in experiment [2] (class designation) and in experiment [2] (numeric value) were < 0.3 nM and 0.22 nM, respectively.
As to `CC[C@](C)(N)c1cnc(OC2(C)CC2)c2cnc(Nc3ccc4c(n3)[C@@H](C)C(C)(C)OC4=O)cc12` [Compound 87], the EC50 in experiment [1] (class designation) was < 35 nM; in experiment [1] (numeric value), 31.6 nM. Also, the values for the 50% inhibitory concentration (IC50) in experiment [2] (class designation) and in experiment [2] (numeric value) were 0.31 to 1 nM and 0.44 nM, respectively.
On the same counts, the results for `C[C@@H]1OC(=O)c2ccc(Nc3cc4c([C@@](C)(N)C5CC5)cnc(OC5(C)CC5)c4cn3)nc2[C@H]1C` [Compound 88] are < 35 nM, 11.5 nM, < 0.3 nM and 0.16 nM.

Broadly, the EC50 is the midpoint of the concentration-response curve. As a reminder, the IC50 is the concentration at which inhibition is half-maximal.
